According to ChEMBL document CHEMBL3259800, “Design, synthesis and biological evaluation of novel 4-alkapolyenylpyrrolo[1,2-a]quinoxalines as antileishmanial agents--part III” (Eur J Med Chem, 2014):

Experiments:
[1] = system: Leishmania major; assay: Antimicrobial activity against Leishmania major MHOM/IL/81/BNI promastigotes after 96 hrs by resazurin-based assay; type: functional, organism-based
[2] = system: Leishmania mexicana; assay: Antimicrobial activity against Leishmania mexicana MHOM/MX/95/NAN1 promastigotes after 96 hrs by resazurin-based assay; type: functional, organism-based; conditions: MHOM/MX/95/NAN1, 96 h
[3] = system: Leishmania donovani; assay: Antimicrobial activity against Leishmania donovani MHOM/IN/00/DEVI promastigotes after 72 hrs by MTT assay; type: functional, organism-based
[4] = Cytotoxicity against mouse J774A1 cells after 72 hrs by MTT assay; type: cell-based, J774.A1
[5] = Cytotoxicity against human HepG2 cells after 72 hrs by MTT assay; type: cell-based
[6] = Selectivity index, ratio of CC50 for human HepG2 cells to IC50 for Leishmania major MHOM/IL/81/BNI promastigotes; type: functional
[7] = Selectivity index, ratio of CC50 for human HepG2 cells to IC50 for Leishmania mexicana MHOM/MX/95/NAN1 promastigotes; type: functional
[8] = Selectivity index, ratio of CC50 for human HepG2 cells to IC50 for Leishmania donovani MHOM/IN/00/DEVI promastigotes; type: functional
[9] = Selectivity index, ratio of CC50 for mouse J774A1 cells to IC50 for Leishmania major MHOM/IL/81/BNI promastigotes; type: functional, J774.A1
[10] = Selectivity index, ratio of CC50 for mouse J774A1 cells to IC50 for Leishmania mexicana MHOM/MX/95/NAN1 promastigotes; type: functional, J774.A1
[11] = Selectivity index, ratio of CC50 for mouse J774A1 cells to IC50 for Leishmania donovani MHOM/IN/00/DEVI promastigotes; type: functional, J774.A1
[12] = system: Trypanosoma brucei brucei; assay: Antimicrobial activity against Trypanosoma brucei brucei Antat 1.1 after 24 hrs by haemocytometric analysis; type: functional, organism-based; conditions: Antat 1.1, 24 h
[13] = Selectivity index, ratio of CC50 for human HepG2 cells to IC50 for Trypanosoma brucei brucei Antat 1.1; type: functional
[14] = system: Plasmodium falciparum; assay: Antimicrobial activity against chloroquine-resistant and mefloquine-sensitive Plasmodium falciparum W2 infected in human erythrocytes after 48 hrs by SYBR Green I assay; type: functional, organism-based; conditions: W2, 48 h
[15] = system: Plasmodium falciparum; assay: Antimicrobial activity against chloroquine and mefloquine-sensitive Plasmodium falciparum 3D7 infected in human erythrocytes after 48 hrs by SYBR Green I assay; type: functional, organism-based; conditions: 3D7, 48 h
[16] = Selectivity index, ratio of CC50 for human HepG2 cells to IC50 for chloroquine-resistant and mefloquine-sensitive Plasmodium falciparum W2; type: functional
[17] = Selectivity index, ratio of CC50 for human HepG2 cells to IC50 for chloroquine and mefloquine-sensitive Plasmodium falciparum 3D7; type: functional
[18] = system: Leishmania major; assay: Ratio of pentamidine IC50 to compound IC50 for Leishmania major MHOM/IL/81/BNI promastigotes; type: functional

SMILES | IC50 [1] [µM] | IC50 [2] [µM] | IC50 [3] [µM] | CC50 at 72 h [4] [µM] | CC50 at 72 h [5] [µM] | Ratio CC50/IC50 [6] | Ratio CC50/IC50 [7] | Ratio CC50/IC50 [8] | Ratio CC50/IC50 [9] | Ratio CC50/IC50 [10] | Ratio CC50/IC50 [11] | IC50 [12] [µM] | Ratio CC50/IC50 [13] | IC50 [14] [µM] | IC50 [15] [µM] | Ratio CC50/IC50 [16] | Ratio CC50/IC50 [17] | Ratio IC50 [18]
C/C=C/C=C/c1nc2ccccc2n2cccc12 | 4.7 | 7.6 | 9.8 | 4.3 | 10.3 | 2.2 | 1.4 | 1.1 | 0.9 | 0.6 | 0.4 | 2.4 | 4.3 | 2.5 | 2.4 | 4.1 | 4.3 | 
C/C=C/C=C/c1nc2cc(OC)ccc2n2cccc12 | 3 | 3.3 | 5.3 | 2.5 | 5.8 | 1.9 | 1.8 | 1.1 | 0.8 | 0.8 | 0.5 | 2.1 | 2.8 | 3.4 | 3.3 | 1.7 | 1.8 | 
C/C=C/C=C/c1nc2ccc(OC)cc2n2cccc12 | 2.7 | 3.7 | 5.4 | 5.3 | 8.7 | 3.2 | 2.4 | 1.6 | 2 | 1.4 | 1 | 1.8 | 4.8 | 2.4 | 1.5 | 3.6 | 5.8 | 
C/C=C/C=C/c1nc2cccc(OC)c2n2cccc12 | 3.3 | 8 | 7.2 | 2.7 | 6.5 | 2 | 0.8 | 0.9 | 0.8 | 0.3 | 0.4 | 2.2 | 2.9 | 2.6 | 3.2 | 2.5 | 2 | 
CCC/C=C/C=C/c1nc2ccccc2n2cccc12 | 3.9 | 12.1 | 7.6 | 4.7 | 9.3 | 2.4 | 0.8 | 1.2 | 1.2 | 0.4 | 0.6 |  |  | 1.1 | 2.5 | 8.5 | 3.7 | 
CCC/C=C/C=C/c1nc2cc(OC)ccc2n2cccc12 | 2.8 | 3.2 | 8.6 | 6.5 | 8.8 | 3.1 | 2.8 | 1 | 2.3 | 2 | 0.8 | 1.9 | 4.6 | 0.8 | 2.3 | 11 | 3.8 | 
CCC/C=C/C=C/c1nc2ccc(OC)cc2n2cccc12 | 7.4 | 5.1 | 7.6 | 7.8 | 20.1 | 2.7 | 4 | 2.6 | 1.1 | 1.5 | 1 |  |  | 11 | 3.3 | 1.8 | 6.1 | 
CCC/C=C/C=C/c1nc2cccc(OC)c2n2cccc12 | 3.9 | 10.3 | 9.9 | 7.1 | 17.4 | 4.5 | 1.7 | 1.8 | 1.8 | 0.7 | 0.7 |  |  | 1.3 | 1.6 | 13.4 | 10.9 | 
CCCC/C=C/C=C/c1nc2ccccc2n2cccc12 | 3.7 | 6.1 | 13.7 | 8.8 | 8.2 | 2.2 | 1.3 | 0.6 | 2.4 | 1.4 | 0.6 |  |  | 6.7 | 6.3 | 1.2 | 1.3 | 
CCCC/C=C/C=C/c1nc2cc(OC)ccc2n2cccc12 | 2.5 | 6.6 | 12.1 | 8 | 18.3 | 7.3 | 2.8 | 1.5 | 3.2 | 1.2 | 0.7 | 1.1 | 16.6 | 13.8 | 8.9 | 1.3 | 2.1 | 
CCCC/C=C/C=C/c1nc2ccc(OC)cc2n2cccc12 | 4.4 | 3.8 | 14.7 | 10 | 22.9 | 5.2 | 6 | 1.6 | 2.3 | 2.6 | 0.7 | 1.3 | 17.6 | 13.3 | 10.4 | 1.7 | 2.2 | 
CCCC/C=C/C=C/c1nc2cccc(OC)c2n2cccc12 | 5.8 | 4.5 | 11.6 | 6.4 | 15.8 | 2.7 | 3.5 | 1.4 | 1.1 | 1.4 | 0.6 |  |  | 19.8 | 9.8 | 0.8 | 1.6 | 
C/C=C/C=C/C=C/c1nc2ccccc2n2cccc12 | 1.2 | 4.4 | 10.5 | 4.9 | 10.6 | 8.8 | 2.4 | 1 | 4.1 | 1.1 | 0.5 | 2.2 | 4.8 | 8.8 | 10.1 | 1.2 | 1 | 3.6
C/C=C/C=C/c1nc2ccccc2n2ccc(OCC)c12 | 1.5 | 9.6 | 4 | 3.5 | 4.5 | 3 | 0.5 | 1.1 | 2.3 | 0.4 | 0.9 |  |  | 9.6 | 7.7 | 0.5 | 0.6 | 
O[C@@H](c1cc(C(F)(F)F)nc2c(C(F)(F)F)cccc12)[C@H]1CCCCN1 [(S,R)-MEFLOQUINE] |  |  |  |  |  |  |  |  |  |  |  |  |  | 0.015 |  |  |  | 
N=C(N)c1ccc(OCCCCCOc2ccc(C(=N)N)cc2)cc1 [PENTAMIDINE] | 4.3 | 2.4 | 5.5 | 0.56 |  | 0.5 | 1 | 0.4 | 0.1 | 0.2 | 0.1 | 0.05 | 46 |  |  |  |  | 
